The source of these data is patent US20260365663A1, “EMOPAMIL-BINDING PROTEIN INHIBITORS AND USES THEREOF” (BIOGEN MA INC., priority 2022, published 2026).

The structures appear in SMILES notation.

T1 sequence (Q15125 whole entry): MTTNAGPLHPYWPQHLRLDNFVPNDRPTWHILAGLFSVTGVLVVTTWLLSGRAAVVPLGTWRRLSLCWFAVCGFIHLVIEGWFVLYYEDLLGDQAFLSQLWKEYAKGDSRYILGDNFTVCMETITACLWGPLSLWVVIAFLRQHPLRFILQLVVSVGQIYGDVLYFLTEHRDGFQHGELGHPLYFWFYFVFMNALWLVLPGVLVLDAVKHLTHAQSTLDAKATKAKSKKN

One experiment concerns the target T1, EBP (Homo sapiens, UniProt Q15125).
T1 construct: HEK293T cells were utilized as the source of EBP enzyme; endogenous in cells; host or cells: HEK293T
Briefly: EBP Functional Assay (EBP immunoaffinity LC-MS assay). The format is biochemical.
Conditions: not given
The procedure, abridged: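 HEK293T-derived EBP preincubated 30 min with inhibitor, then zymosterol-d5 added and incubated 4 h at 37 °C. Extracted sterols quantified by LC-APCI MRM MS (372.3-203.2, positive mode). IC50 from percent conversion to […], fit to a 4-parameter logistic model.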
As to `Cc1nc(C(F)(F)F)ncc1S(=O)(=O)N1CC2(CC(N(C)C3CCOCC3)C2)C1` [Example 80, N-methyl-2-((4-methyl-2-(trifluoromethyl)pyrimidin-5-yl)sulfonyl)-N-(tetrahydro-2H-pyran-4-yl)-2-azaspiro[3.3]heptan-6-amine], the IC50 was less than 100 nM. On the same count and under the same terms, next, `Cc1nc(C(F)(F)F)ccc1S(=O)(=O)N1CC2(CCC(N3CCOCC3)C2)C1` (stereo not drawn) [Example 40, 4-(2-((2-Methyl-6-(trifluoromethyl)pyridin-3-yl)sulfonyl)-2-azaspiro[3.4]octan-6-yl)morpholine]: less than 100 nM; `Cc1cc(S(=O)(=O)N2CC3(CC(N4CCC(C)CC4)CO3)C2)n(C)n1` (stereo not drawn) [Example 55, 2-((1,3-Dimethyl-1H-pyrazol-5-yl)sulfonyl)-7-(4-methylpiperidin-1-yl)-5-oxa-2-azaspiro[3.4]octane]: 100 to 500 nM. On the same count and under the same terms, next, `O=S(=O)(c1ccc(F)cc1F)N1CC2(CCC(N3CCOCC3)C2)C1` (stereo not drawn) [Example 46, 4-(2-((2,4-Difluorophenyl)sulfonyl)-2-azaspiro[3.4]octan-6-yl)morpholine]: 500 to 3000 nM.

Still in this experiment, the particulars now being: HEK293T cells as source of EBP enzyme; zymosterol-d5 substrate; inhibitor 30 min, then 37 °C for 4 h; percent conversion to dehydrolathosterol-d5 by LC-APCI MRM MS; read-out: EBP Functional Assay.
In the case of `Cc1nc(C(F)(F)F)ncc1S(=O)(=O)N1CC2(CC(N3CC4(CCO4)C3)C2)C1` [Example 16, 6-(2-((4-Methyl-2-(trifluoromethyl)pyrimidin-5-yl)sulfonyl)-2-azaspiro[3.3]heptan-6-yl)-1-oxa-6-azaspiro[3.3]heptane], the IC50 fell in the range of 500 to 3000 nM.

`Cc1nc(C(F)(F)F)ncc1S(=O)(=O)N1CC2(CC(N(C)CC3CCOCC3)C2)C1` [Example 83, N-methyl-2-((4-methyl-2-(trifluoromethyl)pyrimidin-5-yl)sulfonyl)-N-((tetrahydro-2H-pyran-4-yl)methyl)-2-azaspiro[3.3]heptan-6-amine]: the IC50 fell in the range of 100 to 500 nM. On the same count and under the same terms, next, `Cc1nc(C(F)(F)F)ncc1S(=O)(=O)N1CC2(CC(NC3CC4(COC4)C3)C2)C1` (stereo not drawn) [Example 78, 2-((4-methyl-2-(trifluoromethyl)pyrimidin-5-yl)sulfonyl)-N-(2-oxaspiro[3.3]heptan-6-yl)-2-azaspiro[3.3]heptan-6-amine]: 100 to 500 nM; `Cc1nc(C(C)(F)F)ccc1S(=O)(=O)N1CC2(CC(N(C)C3CC4(COC4)C3)C2)C1` (stereo not drawn) [Example 74, 2-((6-(1,1-difluoroethyl)-2-methylpyridin-3-yl)sulfonyl)-N-methyl-N-(2-oxaspiro[3.3]heptan-6-yl)-2-azaspiro[3.3]heptan-6-amine]: less than 100 nM; `COc1ncc(C)cc1S(=O)(=O)N1CC2(CC(NC3CCOCC3)CO2)C1` (stereo not drawn) [Example 21, 2-((2-Methoxy-5-methylpyridin-3-yl)sulfonyl)-N-(tetrahydro-2H-pyran-4-yl)-5-oxa-2-azaspiro[3.4]octan-7-amine]: 500 to 3000 nM.
